Assay results from ChEMBL document CHEMBL1151418, “Breviane spiroditerpenoids from an extreme-tolerant Penicillium sp. isolated from a deep sea sediment sample” (J Nat Prod, 2009).
Structures can show the parent of a compound that is named as a salt.

Assays:
HeLa = experiment: Growth inhibition of human HeLa cells at 10 ug/mL after 4 hrs by MTT assay; format: functional; conditions: read-out: GI
[1] = Cytotoxicity against human C8166 cells after 4 days by MTT assay; format: cell-based
HIV-1 M:B_Lai = experiment: Antiviral activity against HIV-1 M:B_Lai replication in human C8166 cells assessed as inhibition of p24 antigen expression level after 4 days by ELISA; format: functional, organism-based; conditions: Human immunodeficiency virus 1, LAI, C8166, 96 h

CC1=CC(=O)C=C[C@]2(C)[C@H]3[C@@H](O)C=C(C)[C@@]4(Cc5c(c(C)c(C)oc5=O)O4)[C@]3(C)CC[C@@H]12 [BREVIONE F]
inhibition of growth at 10 µg/mL (HeLa): 25.2% | CC50 at 96 h [1]: > 100 µM | EC50 (HIV-1 M:B_Lai): 14.7 µM

CC1=CC(=O)C=C[C@]2(C)[C@H]3[C@H](O)C=C(C)[C@@]4(Cc5c(c(C)c(C)oc5=O)O4)[C@]3(C)CC[C@@H]12 [BREVIONE G]
inhibition of growth at 10 µg/mL (HeLa): 44.9% | EC50 (HIV-1 M:B_Lai): > 50 µM

CC1=CC(=O)C[C@@H]2O[C@@H]3C=C(C)[C@@]45Oc6c(C)c(C)oc(=O)c6[C@@H]4O[C@H](O)[C@]54CC[C@@H]1[C@@]2(C)[C@@H]34 [BREVIONE H]
inhibition of growth at 10 µg/mL (HeLa): 25.3% | EC50 (HIV-1 M:B_Lai): > 50 µM

CC(C)(C)NC(=O)[C@@H]1CN(Cc2cccnc2)CCN1C[C@@H](O)C[C@@H](Cc1ccccc1)C(=O)N[C@H]1c2ccccc2C[C@H]1O [INDINAVIR SULFATE]
EC50 (HIV-1 M:B_Lai): 0.00871 µM
